Source: patent US9809616B2, “Pyrimidine nucleosides and their monophosphate prodrugs for the treatment of viral infections and cancer” (Cocrystal Pharma, Inc., priority 2012, dated 2017)

System: Huh-7 cells
Test: LC/MS analysis of nucleotides formed after 4 hr incubation of 50 μM drug in Huh-7 cells
Assay type: in vitro ADME
Details: 4 hr incubation in Huh-7 cells
Method: Shown below are two examples of the LC/MS qualitative analysis of nucleotides formed after 4 h incubation of 50 μM N^4-hydroxycytidine nucleosides and N^4-hydroxycytidine monophosphate prodrugs in Huh-7 cells.

SMILES	Metabolite 2′-F-2′-Me-U formed in cells	Metabolite 2′-F-2′-Me-UDP formed in cells	Metabolite 2′-F-2′-Me-UMP formed in cells	Metabolite 2′-OH-2′-Me-U formed in cells	Metabolite 2′-OH-2′-Me-UDP formed in cells	Metabolite 2′-OH-2′-Me-UMP formed in cells	Metabolite 36-MP formed in cells	Metabolite 36 formed in cells	Metabolite 37 in cells	further results
C[C@@]1(F)[C@H](O)[C@@H](CO)O[C@H]1n1ccc(NO)nc1=O [Compound 39, 1-((2R,3R,4R,5R)-3-fluoro-4-hydroxy-5-(hydroxymethyl)-3-methyltetrahydrofuran-2-yl)-4-(hydroxyamino)pyrimidin-2(1H)-one]	BLOQ	BLOQ	BLOQ	–	–	–	–	–	–	Metabolite 38-MP formed in cells: BLOQ; Metabolite 38 formed in cells: BLOQ; Metabolite 39-DP formed in cells: BLOQ; Metabolite 39-MP formed in cells: BLOQ; Metabolite 39-TP formed in cells: BLOQ
CCOC(=O)[C@H](C)NP(=O)(OC[C@H]1O[C@@H](n2ccc(NO)nc2=O)[C@](C)(O)[C@@H]1O)Oc1ccccc1 (stereo partly drawn) [Compound 44, (2S)-ethyl 2-(((((2R,3R,4R,5R)-3,4-dihydroxy-5-(4-(hydroxyamino)-2-oxopyrimidin-1(2H)-yl)-4-methyltetrahydrofuran-2-yl)methoxy)(phenoxy)phosphoryl)amino)propanoate]	–	–	–	BLOQ	BLOQ	BLOQ	BLOQ	BLOQ	BLOQ	Metabolite 44 (prodrug) in cells: 13.3 ± 1.7 pmol/10^6 cells
CCOC(=O)[C@H](C)NP(=O)(OC[C@H]1O[C@@H](n2ccc(NO)nc2=O)[C@](C)(F)[C@@H]1O)Oc1ccccc1 (stereo partly drawn) [Compound 51, (2S)-ethyl 2-(((((2R,3R,4R,5R)-4-fluoro-3-hydroxy-5-(4-(hydroxyamino)-2-oxopyrimidin-1(2H)-yl)-4-methyltetrahydrofuran-2-yl)methoxy)(phenoxy)phosphoryl)amino)propanoate]	BLOQ	BLOQ	BLOQ	–	–	–	–	–	–	Metabolite 51 (prodrug) in cells: 71.5 ± 2.3 pmol/10^6 cells
C[C@@]1(O)[C@H](O)[C@@H](CO)O[C@H]1n1ccc(NO)nc1=O [Compound 37, 1-((2R,3R,4R,5R)-3,4-dihydroxy-5-(hydroxymethyl)-3-methyltetrahydrofuran-2-yl)-4-(hydroxyamino)pyrimidin-2(1H)-one]	–	–	–	BLOQ	BLOQ	BLOQ	BLOQ	BLOQ	BLOQ	Metabolite 2′-OH-2′-Me-UTP formed in cells: BLOQ; Metabolite 36-DP formed in cells: BLOQ; Metabolite 36-TP formed in cells: BLOQ; Metabolite 37-DP formed in cells: BLOQ; Metabolite 37-MP formed in cells: BLOQ
